From patent US20260226071A1, “2, 4-DIANILINOPYRIMIDINE-BASED AURORA-A KINASE SELECTIVE DEGRADATION INDUCING COMPOUNDS” (UPPTHERA, INC., priority 2023, published 2026) come the findings set out here.

One assay concerns the target T1, Aurora kinase A (AURKA) (Homo sapiens, UniProt O14965).
T1 construct: endogenous in cells; host or cells: HeLa LgBit (AURKA-HiBit KI), CRISPR/Cas9 knock-in at the endogenous AURKA locus
T1 sequence (O14965 1-403): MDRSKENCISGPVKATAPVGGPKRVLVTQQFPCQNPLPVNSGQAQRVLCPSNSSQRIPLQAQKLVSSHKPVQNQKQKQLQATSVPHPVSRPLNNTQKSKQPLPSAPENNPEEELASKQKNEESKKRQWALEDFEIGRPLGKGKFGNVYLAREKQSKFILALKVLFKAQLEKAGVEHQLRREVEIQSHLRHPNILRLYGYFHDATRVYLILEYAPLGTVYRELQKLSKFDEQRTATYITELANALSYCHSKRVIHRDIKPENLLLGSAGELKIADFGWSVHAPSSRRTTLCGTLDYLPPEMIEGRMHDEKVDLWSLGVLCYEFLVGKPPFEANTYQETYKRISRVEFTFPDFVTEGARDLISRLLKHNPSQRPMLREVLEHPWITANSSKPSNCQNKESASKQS
Nature of the assay: Luciferase assay for AURKA in HeLa LgBit (AURKA-HiBit KI) cell line. The note with it: HeLa LgBit (AURKA-HiBit KI) cells, measured after 12 hours. The assay is classed as cell-based. The essentials:
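HeLa cells stably expressing LgBit, with HiBit knocked in at the C-terminus of endogenous AURKA; 3×10^4 cells seeded, 18 h, then Endurazine substrate 2 h. Compounds tested at 10 nM or 100 nM; luminescence read at 470-480 nm after 12 h as real-time read-out.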
Background: The HiBiT peptide binds its large partner to form an active luciferase.

The subject of a further assay is NCI-H446 cell line. Nature of the assay: Cell viability assay for NCI-H446 cell line. The settings on record: Homo sapiens, NCI-H446, 120 h; H446 cells, 5 days culture, EZ-Cytox; read-out: IC50 value (Level). The assay is classed as cell-based. From the text:
The NCI-H446 (hereafter H446) cell lines were provided from American Type Culture Collection (ATCC). For cell culture, RPMI medium 1640 (Gibco, Cat. No. 22400-089; Lot. No. 2522717), FBS (Gibco, Cat. No. 16000-044; Lot. No. 2716756P), Penicillin/Streptomycin (PS) (Gibco, Cat. No. 15140-122; Lot. No. 2585636), 75T cell culture flask (SPL, Cat. No. 70075), 96 well cell culture plate (SPL, Cat. No. 30096), PBS pH 7.4 (Gibco, Cat. No. 10010-023; Lot. No. 2561466), TrypLE™ Express (Gibco, Cat. No. 12605-010; Lot. No. 2492811), counting chamber (hematocytometer) (Hirschmann, Cat. No. 8100204) and 0.4% Trypan Blue solution (DYNEBIO, Cat. No. CBT3710; Lot. No. 20231017) were used. Cells were cultured in RPMI 1640 medium supplemented with 10% FBS and 1% PS and incubated at 37° C., 5% CO2 condition in CO2 incubator (ThermoScientific, Cat. No. 4111).
For experiment, the present compounds were fully dissolved in DMSO (Sigma-Aldrich Cat. No. D2438, Lot. No. RNBL7287.
In each well of 96-well cell culture plate, […] cells of H446 cell lines were seeded in 150 μl of total medium volume. After 24 hours of cell seeding, the present compounds were treated.
The present compounds were each diluted 3-folds from the highest concentration of 1000 nM to the lowest concentration of 0.15 nM. The compound was added to each well to make the total volume of […] and the cells were cultured for 5 days in CO2 incubator (Thermo Fisher Science, Cat. No. 4111).
Thereafter, 20 μl of EZ-Cytox (DOGEN, Cat. NO. EZ-3000, Lot. No. DLS2308) was added to each well and the cells were cultured for 4 hours at the same condition in CO2 incubator. After culture, the absorbance of the sample was measured by setting the wavelength of a plate reader (BMG Labtech, CLARIOstar Plus) to […]. The samples were shaked for 2 minutes in the plate reader before measurement.

`O=C1CCC(c2ccc(N3CCN(CCC4CCN(NC(=O)c5ccc(Nc6ncc(F)c(Nc7ccc(C(=O)Nc8ccccc8)cc7)n6)cc5)CC4)CC3)cc2)C(=O)N1` (stereo not drawn) [Compound 103, 4-[[2-[4-[[4-[2-[4-[4-(2,6-dioxo-3-piperidyl)phenyl]piperazin-1-yl]ethyl]-1-piperidyl]carbamoyl]anilino]-5-fluoro-pyrimidin-4-yl]amino]-N-phenyl-benzamide]: the “luminescence value (Level)” value is reported as “B (B is 0.3 to 0.5)” at Aurora kinase A (AURKA) (10 nM compound) and “A (A is <0.2)” at Aurora kinase A (AURKA) (100 nM compound). The IC50 (in general, the concentration that inhibits the measured activity by half) in the assay with NCI-H446 cell line fell in the range of 50 to 100 nM.
For `O=C1CC[C@H](Nc2ccc(N3CCN(CCC4CCN(NC(=O)c5ccc(Nc6ncc(F)c(Nc7ccc(C(=O)Nc8ccccc8Cl)cc7)n6)cc5)CC4)CC3)c(F)c2)C(=O)N1` [Compound 94, (S)—N-(2-chlorophenyl)-4-((2-((4-((4-(2-(4-(4-((2,6-dioxopiperidin-3-yl)amino)-2-fluorophenyl)piperazin-1-yl)ethyl)piperidin-1-yl)carbamoyl)phenyl)amino)-5-fluoropyrimidin-4-yl)amino)benzamide], in that order: “A (A is <0.3)”, “A (A is <0.2)” and under 50 nM.
For `O=C1CCC(c2cc(F)c(N3CCN(CCC4CCN(NC(=O)c5ccc(Nc6ncc(F)c(Nc7ccc(NC(=O)c8ccccc8F)cc7)n6)cc5F)CC4)CC3)cc2F)C(=O)N1` (stereo not drawn) [Compound 112, N-[4-[2-[4-[4-(2,6-dioxo-3-piperidyl)-2,5-difluoro-phenyl]piperazin-1-yl]ethyl]-1-piperidyl]-2-fluoro-4-[[5-fluoro-4-[4-[(2-fluorobenzoyl)amino]anilino]pyrimidin-2-yl]amino]benzamide], in that order: “A (A is <0.3)”, “A (A is <0.2)” and under 50 nM.
In the case of `O=C1CCC(Nc2ccc(N3CCC(CN4CCN(C(=O)Cc5ccc(Nc6ncc(F)c(Nc7ccc(C(=O)Nc8ccccc8Cl)cc7)n6)cc5)CC4)CC3)cc2)C(=O)N1` (stereo not drawn) [Compound 24, N-(2-chlorophenyl)-4-((2-((4-(2-(4-((1-(4-((2,6-dioxopiperidin-3-yl)amino)phenyl)piperidin-4-yl)methyl)piperazin-1-yl)-2-oxoethyl)phenyl)amino)-5-fluoropyrimidin-4-yl)amino)benzamide], the “luminescence value (Level)” value on Aurora kinase A (AURKA) (10 nM compound) is reported as “B (B is 0.3 to 0.5)”; on Aurora kinase A (AURKA) (100 nM compound), “A (A is <0.2)”. Moreover, the half-inhibitory concentration (IC50) in the assay with NCI-H446 cell line was under 50 nM.
With `O=C1CCC(Nc2ccc(N3CCN(CCC4CCN(NC(=O)c5ccc(Nc6ncc(F)c(Nc7ccc(C(=O)Nc8ccccc8Cl)cc7)n6)cc5)CC4)CC3)c(F)c2)C(=O)N1` (stereo not drawn) [Compound 55, N-(2-chlorophenyl)-4-((2-((4-((4-(2-(4-(4-((2,6-dioxopiperidin-3-yl)amino)-2-fluorophenyl)piperazin-1-yl)ethyl)piperidin-1-yl)carbamoyl)phenyl)amino)-5-fluoropyrimidin-4-yl)amino)benzamide], the results for the “luminescence value (Level)” value on Aurora kinase A (AURKA) (10 nM compound) and at Aurora kinase A (AURKA) (100 nM compound) were “A (A is <0.3)” and “A (A is <0.2)”, respectively. Besides, in the assay with NCI-H446 cell line, the IC50 was under 50 nM.
For `O=C1CCC(c2ccc(N3CCN(CCN4CCC(COc5ccc(Nc6ncc(F)c(Nc7ccc(C(=O)Nc8ccccc8Cl)cc7)n6)cc5)CC4)CC3)cc2)C(=O)N1` (stereo not drawn) [Compound 99, N-(2-chlorophenyl)-4-((2-((4-((1-(2-(4-(4-(2,6-dioxopiperidin-3-yl)phenyl)piperazin-1-yl)ethyl)piperidin-4-yl)methoxy)phenyl)amino)-5-fluoropyrimidin-4-yl)amino) benzamide], in that order: “D (D is 0.7 to 0.8)”, “B (B is 0.2 to 0.4)” and over 200 nM.
For `C[C@H]1CN(c2ccc(C3CCC(=O)NC3=O)cc2)CCN1CCC1CCN(NC(=O)c2ccc(Nc3ncc(F)c(Nc4ccc(C(=O)Nc5ccccc5Cl)cc4)n3)cc2)CC1` (stereo partly drawn) [Compound 113, N-(2-chlorophenyl)-4-((2-((4-((4-(2-((2S)-4-(4-(2,6-dioxopiperidin-3-yl)phenyl)-2-methylpiperazin-1-yl)ethyl)piperidin-1-yl)carbamoyl)phenyl)amino)-5-fluoropyrimidin-4-yl)amino)benzamide], in that order: “A (A is <0.3)”, “A (A is <0.2)” and under 50 nM.
For `COc1cc(N2CCN(CCC3CCN(NC(=O)c4ccc(Nc5ncc(F)c(Nc6ccc(C(=O)Nc7ccccc7Cl)cc6)n5)cc4)CC3)CC2)c(F)cc1NC1CCC(=O)NC1=O` (stereo not drawn) [Compound 117, N-(2-chlorophenyl)-4-((2-((4-((4-(2-(4-(4-((2,6-dioxopiperidin-3-yl)amino)-2-fluoro-5-methoxyphenyl)piperazin-1-yl)ethyl)piperidin-1-yl)carbamoyl)phenyl)amino)-5-fluoropyrimidin-4-yl)amino)benzamide], in that order: “A (A is <0.3)”, “A (A is <0.2)” and under 50 nM.
For the compound `O=C1CCC(c2ccc(N3CCN(C[C@H]4CC[C@H](NC(=O)c5ccc(Nc6ncc(F)c(Nc7ccc(C(=O)Nc8ccccc8Cl)cc7)n6)cc5)CC4)CC3)cc2)C(=O)N1` (stereo partly drawn) [Compound 16, N-(2-chlorophenyl)-4-((2-((4-(((1r,4r)-4-((4-(4-(2,6-dioxopiperidin-3-yl)phenyl)piperazin-1-yl)methyl)cyclohexyl)carbamoyl)phenyl)amino)-5-fluoropyrimidin-4-yl)amino)benzamide], the “luminescence value (Level)” value at Aurora kinase A (AURKA) (10 nM compound) is on record as “B (B is 0.3 to 0.5)”; on Aurora kinase A (AURKA) (100 nM compound) it was “A (A is <0.2)”. The concentration for half-maximal inhibition (IC50) with NCI-H446 cell line lay within 50 to 100 nM.
With `CN(CC1CCN(c2ccc(C3CCC(=O)NC3=O)cc2)CC1)C1CCC(NC(=O)c2ccc(Nc3ncc(F)c(Nc4ccc(C(=O)Nc5ccccc5Cl)cc4)n3)cc2)CC1` (stereo not drawn) [Compound 4, N-(2-chlorophenyl)-4-((2-((4-((4-(((1-(4-(2,6-dioxopiperidin-3-yl)phenyl)piperidin-4-yl)methyl)(methyl)amino)cyclohexyl)carbamoyl)phenyl)amino)-5-fluoropyrimidin-4-yl)amino)benzamide], the “luminescence value (Level)” value is “C (C is 0.5 to 0.7)” on Aurora kinase A (AURKA) (10 nM compound) and “A (A is <0.2)” on Aurora kinase A (AURKA) (100 nM compound). The IC50 in the assay with NCI-H446 cell line lay in the range of 100 to 150 nM.
For `Cn1c(=O)n(C2CCC(=O)NC2=O)c2ccc(N3CCN(CCC4CCN(NC(=O)c5ccc(Nc6ncc(F)c(Nc7ccc(C(=O)Nc8ccccc8Cl)cc7)n6)cc5)CC4)CC3)cc21` (stereo not drawn) [Compound 106, N-(2-chlorophenyl)-4-((2-((4-((4-(2-(4-(1-(2,6-dioxopiperidin-3-yl)-3-methyl-2-oxo-2,3-dihydro-1H-benzo[d]imidazol-5-yl)piperazin-1-yl)ethyl)piperidin-1-yl)carbamoyl)phenyl)amino)-5-fluoropyrimidin-4-yl)amino)benzamide], in that order: “A (A is <0.3)”, “A (A is <0.2)” and 100 to 150 nM.
For `CC(CN1CCN(c2ccc(C3CCC(=O)NC3=O)cc2)CC1)C1CCN(NC(=O)c2ccc(Nc3ncc(F)c(Nc4ccc(C(=O)Nc5ccccc5Cl)cc4)n3)cc2)CC1` (stereo not drawn) [Compound 6, N-(2-chlorophenyl)-4-((2-((4-((4-(1-(4-(4-(2,6-dioxopiperidin-3-yl)phenyl)piperazin-1-yl)propan-2-yl)piperidin-1-yl)carbamoyl)phenyl)amino)-5-fluoropyrimidin-4-yl)amino)benzamide], in that order: “B (B is 0.3 to 0.5)”, “A (A is <0.2)” and under 50 nM.
